Columns and labels:
[1] = system: rabbit serum obtained by immunizing a rabbit with the SARS-CoV strain Frankfurt 1; assay type: binding; parameters: Binding of a rabbit serum to linear peptides / Binding of a rabbit serum to looped peptides / Rabbit serum linear peptides / Rabbit serum looped peptides / Binding of a rabbit serum to linear peptides of protein N of SARS-CoV Urbani (Rabbit serum linear peptides) / Binding of a rabbit serum to looped/cyclic peptides of protein N of SARS-CoV Urbani (Rabbit serum looped peptides): unit not given here
[2] = system: antibodies in sera from SARS patients (sera 1a, 1b, 2, 6, 37, 62, London, SARS-yellow, SARS-green); assay type: binding, human; parameters: Binding of serum 6 to linear peptides of protein X1 of SARS-CoV Urbani / Binding of serum 37 to linear peptides of protein X1 of SARS-CoV Urbani / Binding of serum 6 to looped/cyclic peptide (PEPSCAN-ELISA) / Binding of serum 37 to looped/cyclic peptide (PEPSCAN-ELISA) / Binding of serum 37 to looped/cyclic peptides of protein X1 of SARS-CoV Urbani / Binding of serum 6 to linear peptides of protein X2 / Binding of serum 37 to linear peptides of protein X2 / Binding of serum 37 to looped/cyclic peptides of protein X2 of SARS-CoV Urbani / Binding of serum 6 to linear peptides of protein M of SARS-CoV Urbani / Binding of serum 37 to linear peptides of protein M of SARS-CoV Urbani / Binding of serum 6 to looped/cyclic peptides of protein M of SARS-CoV Urbani / Binding of serum 37 to looped/cyclic peptides of protein M of SARS-CoV Urbani / Binding of serum 6 to linear peptides of protein X3 of SARS-CoV Urbani / Binding of serum 37 to linear peptides of protein X3 of SARS-CoV Urbani / Binding of serum 37 to looped/cyclic peptides of protein X3 of SARS-CoV Urbani / Binding of serum 6 to linear peptides of protein X4 of SARS-CoV Urbani / Binding of serum 37 to linear peptides of protein X4 of SARS-CoV Urbani / Binding of serum 37 to looped/cyclic peptides of protein X4 of SARS-CoV Urbani / Binding of serum 6 to linear peptides of protein X5 of SARS-CoV Urbani / Binding of serum 37 to linear peptides of protein X5 of SARS-CoV Urbani / Binding of serum 37 to looped/cyclic peptides of protein X5 of SARS-CoV Urbani / Binding of serum 6 to linear peptides of protein N of SARS-CoV Urbani / Binding of serum 37 to linear peptides of protein N of SARS-CoV Urbani / Binding of serum 6 to linear peptide (PEPSCAN-ELISA) / Binding of serum 1a to looped/cyclic peptides of protein N of SARS-CoV Urbani / Binding of serum 1b to looped/cyclic peptides of protein N of SARS-CoV Urbani / Binding of serum 2 to looped/cyclic peptides of protein N of SARS-CoV Urbani / Binding of serum 6 to looped/cyclic peptides of protein N of SARS-CoV Urbani / Binding of serum 37 to looped/cyclic peptides of protein N of SARS-CoV Urbani / Binding of serum 62 to looped/cyclic peptides of protein N of SARS-CoV Urbani / Binding of serum London to looped/cyclic peptides of protein N of SARS-CoV Urbani / Binding of serum SARS-green to looped/cyclic peptides of protein N of SARS-CoV Urbani: unit not given here
[3] = system: control sera (pooled serum of ten healthy LUMC hospital workers; commercial negative donor pooled serum from the Dutch bloodbank); assay type: binding, human

Row | Sequence | Binding of a rabbit serum to linear peptides [1] | Binding of a rabbit serum to looped peptides [1] | Binding of serum 1a to linear peptides of protein X2 [2] | Binding of serum 1a to looped/cyclic peptides of protein X2 of SARS-CoV Urbani [2] | Binding of serum 1b to linear peptides of protein X2 [2] | Binding of serum 1b to looped/cyclic peptides of protein X2 of SARS-CoV Urbani [2] | Binding of serum 2 to linear peptides of protein X2 [2] | Binding of serum 2 to looped/cyclic peptides of protein X2 of SARS-CoV Urbani [2] | Binding of serum 6 to linear peptides of protein X2 [2] | Binding of serum 6 to looped/cyclic peptides of protein X2 of SARS-CoV Urbani [2] | Binding of serum 37 to linear peptides of protein X2 [2] | Binding of serum 37 to looped/cyclic peptides of protein X2 of SARS-CoV Urbani [2] | Binding of serum 62 to linear peptides of protein X2 [2] | Binding of serum 62 to looped/cyclic peptides of protein X2 of SARS-CoV Urbani [2] | Binding of serum London to linear peptides of protein X2 [2] | Binding of serum London to looped/cyclic peptides of protein X2 of SARS-CoV Urbani [2] | Binding of serum SARS-green to linear peptides of protein X2 [2] | Binding of serum SARS-green to looped/cyclic peptides of protein X2 of SARS-CoV Urbani [2] | Binding of serum SARS-yellow to linear peptides of protein X2 [2] | Binding of serum SARS-yellow to looped/cyclic peptides of protein X2 of SARS-CoV Urbani [2] | also measured
1 | MSLYMAISPKFTTSL | 0.3 | 0.5 | 0.8 | 0.7 | 0.7 | 0.6 | 0.4 | 0.4 | 0.3 | 0.5 | 0.6 | 0.5 | 0.6 | 0.8 | 0.4 | 0.4 | 0.5 | 0.3 | 0.3 | 0.5 | Binding of Control Serum Blood-Bank to Looped peptides [3]: 0.8; Binding of Control serum Blood-bank to linear peptides [3]: 0.7; Binding of Control serum LUMC to linear peptides [3]: 0.6; Binding of Control serum LUMC to looped peptides [3]: 0.9
2 | MTTVYHITVSQIQLS | 0.7 | 0.4 | 0.7 | 0.5 | 0.6 | 0.5 | 0.5 | 0.3 | 0.5 | 0.3 | 0.6 | 0.5 | 0.5 | 0.6 | 0.5 | 0.2 | 0.2 | 0.4 | 0.6 | 0.4 | Binding of Control Serum Blood-Bank to Looped peptides [3]: 0.6; Binding of Control serum Blood-bank to linear peptides [3]: 0.6; Binding of Control serum LUMC to linear peptides [3]: 0.6; Binding of Control serum LUMC to looped peptides [3]: 0.5
